Source: patent US20150289512A1, “METHOD FOR PROMOTING PLANT GROWTH” (SUMITOMO CHEMICAL COMPANY, LIMITED, priority 2012, published 2015)

How the values were obtained:
Assay type in all cases: in vivo
[1] = tested on: Rice (variety: Nipponbare); test: Test Example 1: promotion of root growth by hydroponics of rice, 10 ppm; conditions: hydroponic solution containing the test compound at 10 ppm, average of 4 or 5 individuals; for change in vivo at 10 ppm: Oryza sativa, read-out: Relative value of length of seminal root (%-untreated control plot)
Procedure: (§1) Test for Evaluating Promotion of Root Growth by Hydroponics of Rice
(§2) Rice (variety: Nipponbare)
(§3) Rice seeds were soaked in a 1% aqueous sodium hypochlorite solution for 10 minutes, then soaked in a 70% ethanol solution for surface sterilization, and then washed with distilled water. The sterilized seeds were soaked in a hydroponic solution containing the test compound described above at 10 ppm and incubated in a dark place for 3 days at 28° C. to perform treatment for hastening germination.
(§4) Thereafter, 30 ml of hydroponic solution containing the test compound at 10 ppm was dispensed in a plastic tube (diameter of 20 mm×height of 113 mm) of which the side was covered with cardboard to block light. A float prepared using a styrene board and vinyl mesh was floated, and the rice seeds that had undergone the treatment for hastening germination were placed on the float on the surface of the hydroponic solution. The seeds were cultivated for 3 days at 26° C., an illuminance of 4,000 lux of the top surface of the tube, a humidity of 50%, and a day length of 16 hours.
(§5) The nursery plants of rice obtained after culturing were measured in terms of the length of seminal root by using WinRHIZO system (manufactured by Regent Instruments Inc). For each test plot, an average of the measured values of the seminal root of 4 or 5 individuals was determined.

[2] = tested on: Rice (variety: Nipponbare); test: Test Example 2: promotion of root growth by hydroponics of rice, 1 ppm; conditions: hydroponic solution containing the test compound at 1 ppm, average of 4 or 5 individuals; for change in vivo at 1 ppm: Oryza sativa, read-out: Relative value of length of seminal root (%-untreated control plot)
Procedure: as §1, §2
A DMSO solution, which contained one of the compounds 1, 3, 11, 12, 14, 15, 17, 21, 28, 30, 33, 34, 35, 36, 37, 38, 40, 41, 43, 44, 45, 46, 47, 49, 50, 51, 52, 53, 54, 55, 56, 61, 62, 63, 65, 67, 68, 69, 70, 73, 74, 75, 76, 77, 80, 82, 83, 85 and 86 of the present invention at a concentration of 10,000 ppm, was added to Hoagland hydroponic solution (Hoagland and Arnon, California Agricultural Experiment Station 1950 Circular 347 pp. 34) of ¼-fold concentration at a volume ratio of 1/10,000. In this manner, hydroponic solutions containing one of the compounds 1, 3, 11, 12, 14, 15, 17, 21, 28, 30, 33, 34, 35, 36, 37, 38, 40, 41, 43, 44, 45, 46, 47, 49, 50, 51, 52, 53, 54, 55, 56, 61, 62, 63, 65, 67, 68, 69, 70, 73, 74, 75, 76, 77, 80, 82, 83, 85 and 86 of the present invention at 1 ppm were prepared respectively. As an untreated control plot, a hydroponic solution obtained by adding DMSO to Hoagland hydroponic solution of ¼-fold concentration at a volume ratio of 1/10,000 was used. Rice seeds were soaked in a 1% aqueous sodium hypochlorite solution for 10 minutes, then soaked in a 70% ethanol solution for surface sterilization, and then washed with distilled water. The sterilized seeds were soaked in a hydroponic solution containing the test compound described above at 1 ppm and incubated in a dark place for 3 days at 28° C. to perform treatment for hastening germination.
as §4, with “1” for “10”
The nursery plants of rice obtained after cultivation were measured in terms of the length of seminal root by using WinRHIZO system (manufactured by Regent Instruments Inc). For each test plot, an average of the measured values of the seminal root of 4 or 5 individuals was determined.

[3] = tested on: Rice (variety: Nipponbare); test: Test Example 3: promotion of root growth by hydroponics of rice, 0.1 ppm; conditions: Oryza sativa, hydroponic solution containing the test compound at 0.1 ppm, average of 4 or 5 individuals, read-out: Relative value of length of seminal root (%-untreated control plot)
Procedure: as §1, §2
A DMSO solution, which contained one of the compounds 2, 6, 7, 16, 20, 33, 34, 36, 37, 38, 40, 41, 43, 44, 45, 46, 47, 48, 50, 51, 52, 53, 54, 55, 56, 61, 64, 67, 68, 71, 72, 73, 74, 75, 76, 79, 80, 81 and 83 of the present invention at a concentration of 1,000 ppm, was added to Hoagland hydroponic solution (Hoagland and Arnon, California Agricultural Experiment Station 1950 Circular 347 pp. 34) of ¼-fold concentration at a volume ratio of 1/10,000. In this manner, hydroponic solutions containing one of the compounds 2, 6, 7, 16, 20, 33, 34, 36, 37, 38, 40, 41, 43, 44, 45, 46, 47, 48, 50, 51, 52, 53, 54, 55, 56, 61, 64, 67, 68, 71, 72, 73, 74, 75, 76, 79, 80, 81 and 83 of the present invention at 0.1 ppm were prepared respectively. As an untreated control plot, a hydroponic solution obtained by adding DMSO to Hoagland hydroponic solution of ¼-fold concentration at a volume ratio of 1/10,000 was used.
as §3, with “at 0.1” for “at 10”
as §4, with “0.1” for “10”
as §5

Row | Structure (SMILES) | change in vivo at 10 ppm [1] [%] | change in vivo at 1 ppm [2] [%] | change in vivo at 0.1 ppm [3] [%] | other results
1 | Nc1c(C(=O)O)oc2ccc(C(F)(F)F)cc12 [Compound 49] | > 5 | > 5 |  | 
2 | COC(=O)c1oc2ccccc2c1O [Compound 35] | > 5 | > 5 |  | 
3 | COC(=O)c1cc2ccccc2[nH]1 [Compound 13] |  |  |  | Relative value of length of seminal root (%-untreated control plot) [1]: >5%
4 | CCOC(=O)c1cc2cccc(C(F)(F)F)c2[nH]1 [Compound 12] |  |  |  | Relative value of length of seminal root (%-untreated control plot) [2]: >5%
5 | CCOC(=O)c1cc2ccc(C(F)(F)F)cc2o1 [Compound 46] | > 5 | > 5 | > 5 | 
6 | O=C(Oc1ccccc1)c1oc2ccc(C(F)(F)F)cc2c1C(F)(F)F [Compound 72] |  |  | > 5 | 
7 | COc1ccc(NC(=O)c2cc3cc(C(F)(F)F)ccc3[nH]2)c(OC)c1 [Compound 10, N-(2,4-dimethoxyphenyl)-5-trifluoromethylindole-2-carboxamide] | > 5 |  |  | 
8 | COC(=O)c1cc2ccccc2n1C [Compound 15] |  | > 5 |  | 
9 | Cn1c(C(=O)O)cc2ccccc21 [Compound 14] |  |  |  | Relative value of length of seminal root (%-untreated control plot) [2]: >5%
10 | COC(=O)c1nc2cccnc2n1C [Compound 26, methyl 3-methyl-3H-imidazo[4,5-b]pyridine-2-carboxylate] | > 5 |  |  | 
11 | O=C(O)c1cc2ccc(C(F)(F)F)cc2o1 [Compound 47] | > 5 | > 5 | > 5 | 
12 | COC(=O)c1oc2ccccc2c1N(C(=O)C(F)(F)F)C(=O)C(F)(F)F [Compound 38] | > 5 | > 5 | > 5 | 
13 | COC(=O)c1nc2ccc(C(F)(F)F)cc2n1C [Compound 25, methyl 1-methyl-6-trifluoromethylbenzimidazole-2-carboxylate] | > 5 |  |  | 
14 | COC(=O)c1oc2ccccc2c1NS(=O)(=O)c1ccccc1 [Compound 61] | > 5 | > 5 | > 5 | 
15 | O=C(O)c1cc2cccc(C(F)(F)F)c2[nH]1 [Compound 11] |  |  |  | Relative value of length of seminal root (%-untreated control plot) [2]: >5%
16 | COC(=O)c1nc2ccccc2[nH]1 [Compound 19] |  |  |  | Relative value of length of seminal root (%-untreated control plot) [1]: >5%
